Tests used:
[1] = tested on: S. Typhimurium SL1344 (sifB::gfp) in RAW 264.7 macrophages; experiment: SAFIRE macrophage assay: intracellular bacterial load (GFP signal within macrophages); format: cell-based, Salmonella enterica serotype Typhimurium; settings: for IC50: Salmonella enterica, TYPHIMURIUM, RAW264.7, read-out: SAFIRE IC50
Method in brief: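 RAW 264.7 macrophages infected with S. Typhimurium SL1344 sifB::gfp (MOI ~30), gentamicin 40 µg/mL, then compound from 2 h to 18 h post-infection. Confocal imaging with MitoTracker and DAPI; toxicity as adherent MitoTracker-positive macrophage count, bacterial load as GFP+ macrophage area.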

S. Typhimurium = experiment: Checkerboard growth assays with antibiotics in LPM 5.5 (FICI and MuSyC analyses); format: cell-based; parameters: Antibiotic MIC Combination: unit not given here; EPM MIC Combination: unit: µM; settings: for log10(α1) [95% CI] (log-fold-change in potency of EPM due to the antibiotic) / log10(α2) [95% CI] (log-fold-change in potency of the antibiotic due to the EPM) / Βobs [95% CI] (proportion increase in maximal efficacy of the antibiotic): MuSyC fit; for Antibiotic MIC Combination / EPM MIC Combination / FICI value: LPM 5.5
Protocol: To examine whether the EPM analogs interact additively or synergistically with antibiotics, checkerboard growth assays were carried out in LPM 5.5. We compared three antibiotics (ciprofloxacin, doxycycline, erythromycin) and three EPM analogs (CU032, CU187, CU232) and the EPM35 parent compound (Fig. 6A). Standard fractional inhibitory concentration index (FICI) analyses supported synergy between the EPM analogs and ciprofloxacin (Fig. 6B). Since FICI values cannot distinguish between synergy due to changes in potency (activity) versus efficacy (the extent of the effect) ([42], [43]), we used the MuSyC synergy algorithm to measure EPM-antibiotic synergy ([44], [45]). The data were well fit by the MuSyC equation, with an R^2 of greater than 0.96 for all checkerboards (Table S2). […] Moreover, the consistency in the synergy of potency values across the antibiotics with different EPM analogs points toward a shared mechanism of action: the EPMs could modify the pharmacodynamics of the efflux process and prevent export of specific substrates through interactions with AcrB. We posit that the EPMs differentially reduce antibiotic export resulting in a higher effective intracellular concentration of the antibiotic.
Overnight cation-adjusted MHB-grown cultures of SL1344 or SA10801 were diluted in MHB or LPM 5.5 to an optical density at 600 nm (OD600) of 0.01 and distributed into polystyrene 96-well flat-bottom plates. EPM analogs were added at concentrations up to 300 µM, near the limit of solubility. The antibiotics ciprofloxacin, doxycycline, and erythromycin were added up to concentrations of 2 µM, 2 µM, and 8 µM, respectively. The final DMSO concentration was at or below 2% in all wells. Plates were grown at 37°C with shaking for 18 h and OD600 was monitored (BioTek Synergy H1, BioTek Eon). Each experiment was performed with biological triplicate or higher as indicated. Percent growth was determined by normalizing to OD600 reads in wells containing no D66 or antibiotic. Checkerboards in LPM 5.5 medium were performed with culture grown overnight in LB and diluted to an OD600 of 0.01 in LPM 5.5 and compounds/antibiotics were added as previously described. MuSyC analysis was pursued as previously described ([44], [45]). Briefly, the 2D Hill equation was fit to the normalized growth inhibition data from the checkerboards using a bounded non-linear least square regression algorithm. A Monte Carlo sampling method was used to compute the 95% CI in the parameter fits from three biological replicates. The bounds on the parameters minimal and maximal efficacy of the antibiotics and EPMs (E0,Emax) were [0.99,1.01] and [0,1], respectively ([44], [45]).

[2] = 25 uM, 'Toxic' given instead of a score
[3] = ciprofloxacin (CIPRO) MIC in combination with the EPM
[4] = doxycycline (DOXY) MIC in combination with the EPM
[5] = 5 uM compound, n=1, DMSO solvent control = 98, rifampicin 2 μg/mL = 65
[6] = 25 uM compound, n=1, DMSO solvent control = 98, rifampicin 2 μg/mL = 65

| Compound | 25 uM Avg Antibacterial Score [1, 2] | IC50 [1] | log10(α1) [95% CI] (log-fold-change in potency of EPM due to the antibiotic) (S. Typhimurium; Ciprofloxacin) | log10(α2) [95% CI] (log-fold-change in potency of the antibiotic due to the EPM) (S. Typhimurium; Ciprofloxacin) | Βobs [95% CI] (proportion increase in maximal efficacy of the antibiotic) (S. Typhimurium; Ciprofloxacin) | log10(α1) [95% CI] (log-fold-change in potency of EPM due to the antibiotic) (S. Typhimurium; Doxycycline) | log10(α2) [95% CI] (log-fold-change in potency of the antibiotic due to the EPM) (S. Typhimurium; Doxycycline) | Βobs [95% CI] (proportion increase in maximal efficacy of the antibiotic) (S. Typhimurium; Doxycycline) | log10(α1) [95% CI] (log-fold-change in potency of EPM due to the antibiotic) (S. Typhimurium; Erythromycin) | log10(α2) [95% CI] (log-fold-change in potency of the antibiotic due to the EPM) (S. Typhimurium; Erythromycin) | Βobs [95% CI] (proportion increase in maximal efficacy of the antibiotic) (S. Typhimurium; Erythromycin) | Antibiotic MIC Combination (S. Typhimurium; [3]) | Antibiotic MIC Combination (S. Typhimurium; [4]) | EPM MIC Combination (S. Typhimurium; with ciprofloxacin (CIPRO)) | FICI value (S. Typhimurium; with ciprofloxacin (CIPRO)) | EPM MIC Combination (S. Typhimurium; with doxycycline (DOXY)) | FICI value (S. Typhimurium; with doxycycline (DOXY)) | EPM MIC Combination (S. Typhimurium; with erythromycin (ERY)) | FICI value (S. Typhimurium; with erythromycin (ERY)) | 5 uM Avg Antibacterial Score [1, 5] | other results |
| --- | --- | --- | --- | --- | --- | --- | --- | --- | --- | --- | --- | --- | --- | --- | --- | --- | --- | --- | --- | --- | --- |
| NC1CCN(CC(O)COc2ccc(Cl)c(Cl)c2)C1 (stereo not drawn) [CU032] | 21 | 17.4 nM | 0.0 [-0.42,0.07] | 1.52 [1.32,1.56] | 0.07 [0.05,0.1 ] | -0.06 [-0.3,0.04] | 0.25 [0.17,0.28] | 0.0 [-0.01,0.01] | 0.08 [-0.23,0.05] | 1.11 [0.98,1.11] | 0.04 [0.04,0.07] | 1 | 2 | 30 | 0.35 | 100 | 0.55 | 100 | 0.58 | – | 5 uM Avg Antibacterial Score ([1]; 5 uM, 'Toxic' given instead of a score): 55 |
| NC1CCN(CC(O)COc2cccc(C(F)(F)F)c2)CC1 (stereo not drawn) [CU232] | – | 6.9 nM | 0.34 [0.18,0.38] | 1.87 [1.73,1.85] | 0.0 [-0.02,0.03] | 0.14 [-0.23,0.33] | 0.16 [0.06,0.19] | 0.02 [-0.01,0.02] | -0.02 [-0.35,-0.05] | 1.38 [1.11,1.44] | 0.06 [0.05,0.07] | 1 | 2 | 44 | 0.4 | 100 | 0.58 | 100 | 0.58 | 37 | 25 uM Avg Antibacterial Score [1, 6]: 21 |
| OC(CN[C@H]1[C@@H]2CNC[C@@H]21)COc1cc(Cl)cc(Cl)c1 (stereo partly drawn) [CU244] | – | 372 nM | – | – | – | – | – | – | – | – | – | – | – | – | – | – | – | – | – | 48 | 25 uM Avg Antibacterial Score [1, 6]: 19 |
| OC(COc1ccc(Cl)c(Cl)c1)CN1CCC(Nc2nccc(C(F)(F)F)n2)CC1 (stereo not drawn) [EPM35] | Toxic | 3450 nM | 0.58 [0.17,0.77] | -0.12 [-0.22,0.03] | 0.01 [-0.01,0.01] | 0.7 [0.41,0.87] | 0.43 [0.31,0.39] | -0.01 [-0.04,-0.01] | 0.49 [0.15,0.74] | -0.01 [-0.06,0.03] | 0.01 [-0.01,0.01] | 1 | 2 | 150 | 0.7 | 150 | 1 | 150 | 1 | – | synergy with antibiotics (S. Typhimurium; checkerboards in LPM 5.5): did not synergize with the antibiotics |

Reference: article PMC10746280, “Bacterial efflux pump modulators prevent bacterial growth in macrophages and under broth conditions that mimic the host environment” (mBio, 2023)
